Where a SMILES comes first, the peptide text is derived from it. [ ]: non-standard residue; d: D form. Bounds are passed on as bounds.

One assay has as its target T1, Galanin receptor type 3 (Rattus norvegicus, UniProt O88626).
T1 sequence (O88626 whole entry): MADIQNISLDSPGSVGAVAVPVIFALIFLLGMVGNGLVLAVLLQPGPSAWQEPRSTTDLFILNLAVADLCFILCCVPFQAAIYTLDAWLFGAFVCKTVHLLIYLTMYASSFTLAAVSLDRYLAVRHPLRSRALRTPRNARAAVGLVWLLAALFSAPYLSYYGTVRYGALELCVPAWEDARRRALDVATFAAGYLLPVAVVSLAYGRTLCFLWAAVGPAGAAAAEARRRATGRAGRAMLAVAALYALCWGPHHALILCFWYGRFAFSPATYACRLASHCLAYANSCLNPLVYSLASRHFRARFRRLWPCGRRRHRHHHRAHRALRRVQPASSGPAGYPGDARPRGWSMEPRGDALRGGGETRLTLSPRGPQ

The target of a further assay is T2, Galanin receptor type 2 (Rattus norvegicus, UniProt O08726).
T2 sequence (O08726 whole entry): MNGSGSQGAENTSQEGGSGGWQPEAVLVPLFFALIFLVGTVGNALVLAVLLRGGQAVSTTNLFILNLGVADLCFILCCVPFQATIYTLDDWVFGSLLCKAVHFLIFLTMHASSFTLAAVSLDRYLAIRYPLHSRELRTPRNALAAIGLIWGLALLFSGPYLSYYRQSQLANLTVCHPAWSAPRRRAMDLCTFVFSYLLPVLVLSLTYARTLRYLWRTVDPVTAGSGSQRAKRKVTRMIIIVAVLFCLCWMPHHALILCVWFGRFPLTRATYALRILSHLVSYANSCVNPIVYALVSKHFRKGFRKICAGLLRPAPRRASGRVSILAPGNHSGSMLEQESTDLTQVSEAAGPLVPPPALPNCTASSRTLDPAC

For the compound `CC(C)C[C@H](NC(=O)[C@H](CC(C)C)NC(=O)[C@H](Cc1ccc(O)cc1)NC(=O)CNC(=O)[C@H](C)NC(=O)[C@H](CO)NC(=O)[C@H](CC(N)=O)NC(=O)[C@H](CC(C)C)NC(=O)[C@@H](NC(=O)[C@H](Cc1c[nH]c2ccccc12)NC(=O)CN)[C@@H](C)O)C(=O)NCC(=O)N1CCC[C@H]1C(=O)N1CCC[C@H]1C(=O)N1CCC[C@H]1C(=O)NCC(=O)N[C@@H](Cc1ccccc1)C(=O)N[C@@H](CO)C(=O)N1CCC[C@H]1C(=O)N[C@@H](Cc1ccccc1)C(=O)N[C@@H](CCCN=C(N)N)C(N)=O`, on Galanin receptor type 3, the affinity, expressed as Ki, was 7.5 nM.

For `CCC(C)C(NC(=O)C(C)NC(=O)C(Cc1cnc[nH]1)NC(=O)C1CCCN1C(=O)CNC(=O)C(CC(C)C)NC(=O)C(CC(C)C)NC(=O)C(Cc1ccc(O)cc1)NC(=O)CNC(=O)C(C)NC(=O)C(CO)NC(=O)C(CC(N)=O)NC(=O)C(CC(C)C)NC(=O)C(NC(=O)C(Cc1c[nH]c2ccccc12)NC(=O)CN)C(C)O)C(=O)NC(CC(=O)O)C(=O)NC(CC(N)=O)C(=O)NC(Cc1cnc[nH]1)C(=O)NC(CCCN=C(N)N)C(=O)NC(CO)C(=O)NC(Cc1ccccc1)C(=O)NC(CO)C(=O)NC(CC(=O)O)C(=O)NC(CCCCN)C(=O)NC(Cc1cnc[nH]1)C(=O)NCC(=O)NC(CC(C)C)C(=O)NC(C(=O)NCC(N)=O)C(C)O` (stereo unspecified) [CAS_132699-74-2], the Ki at Galanin receptor type 3 is > 1000 nM.

Compound `CC(C)C[C@H](NC(=O)[C@H](CC(C)C)NC(=O)[C@@H](Cc1c[nH]c2ccccc12)NC(=O)[C@H](Cc1ccccc1)NC(=O)[C@@H](Cc1c[nH]c2ccccc12)NC(=O)[C@H](CCC(N)=O)NC(=O)[C@H](CCC(N)=O)NC(=O)[C@@H]1CCCN1C(=O)[C@H](CCCCN)NC(=O)[C@@H]1CCCN1C(=O)[C@@H](CCCNC(=N)N)NC(=O)[C@@H]1CCCN1C(=O)CNC(=O)[C@H](CC(C)C)NC(=O)[C@H](CC(C)C)NC(=O)[C@H](Cc1ccc(O)cc1)NC(=O)CNC(=O)[C@H](C)NC(=O)[C@H](CO)NC(=O)[C@H](CC(N)=O)NC(=O)[C@H](CC(C)C)NC(=O)[C@@H](NC(=O)[C@H](Cc1c[nH]c2ccccc12)NC(=O)CN)[C@@H](C)O)C(N)=O` [Gal(1-13)-Std I] (H-GWTLNSAGYLLGP[dR]PKPQQ[dW]F[dW]LL-NH2) showed a Ki on Galanin receptor type 3 of 0.75 nM.

`CC(C)C[C@H](NC(=O)[C@H](CC(C)C)NC(=O)[C@@H](Cc1c[nH]c2ccccc12)NC(=O)[C@@H](Cc1c[nH]c2ccccc12)NC(=O)[C@H](C)NC(=O)[C@H](NC(=O)[C@H](CC(N)=O)NC(=O)[C@H](CC(C)C)NC(=O)[C@@H](NC(=O)[C@H](Cc1c[nH]c2ccccc12)NC(=O)CN)[C@@H](C)O)[C@H](C)O)C(=O)NCC(=O)N1CCC[C@H]1C(=O)N[C@@H](Cc1cnc[nH]1)C(=O)N[C@@H](C)CO` [Gal-(1-15)-ol,[d-Thr6,d-Trp8,9]] came in with a Ki on Galanin receptor type 3 of 1000 nM. Compared with the last compound, the Ki is about 1300-fold higher.

In turn, `CC(C)C[C@H](NC(=O)[C@H](CC(C)C)NC(=O)[C@H](Cc1ccc(O)cc1)NC(=O)[C@@H](Cc1c[nH]c2ccccc12)NC(=O)[C@H](C)NC(=O)[C@H](C)NC(=O)[C@H](CC(N)=O)NC(=O)[C@H](CC(C)C)NC(=O)[C@@H](NC(=O)[C@H](Cc1c[nH]c2ccccc12)NC(=O)CN)[C@@H](C)O)C(=O)NCC(=O)N1CCC[C@H]1C(=O)N[C@@H](Cc1cnc[nH]1)C(=O)N[C@@H](C)CO` [Galanin (1-15)-ol,[Ala6,D-trp8]] registered a Ki on Galanin receptor type 3 of 17.9 nM.

On Galanin receptor type 3, `CC[C@H](C)[C@H](NC(=O)[C@H](C)NC(=O)[C@H](Cc1c[nH]cn1)NC(=O)[C@@H]1CCCN1C(=O)CNC(=O)[C@H](CC(C)C)NC(=O)[C@H](CC(C)C)NC(=O)[C@H](Cc1ccc(O)cc1)NC(=O)CNC(=O)[C@H](C)NC(=O)[C@H](CO)NC(=O)[C@H](CC(N)=O)NC(=O)[C@H](CC(C)C)NC(=O)[C@@H](N)[C@@H](C)O)C(=O)N[C@@H](CC(=O)O)C(=O)N[C@@H](CC(N)=O)C(=O)N[C@@H](Cc1c[nH]cn1)C(=O)N[C@@H](CCCNC(=N)N)C(=O)N[C@@H](CO)C(=O)N[C@@H](Cc1ccccc1)C(=O)N[C@@H](CO)C(=O)N[C@@H](CC(=O)O)C(=O)N[C@@H](CCCCN)C(=O)N[C@@H](Cc1c[nH]cn1)C(=O)NCC(=O)N[C@@H](CC(C)C)C(=O)N[C@H](C(N)=O)[C@@H](C)O` [Galanin (3-29), rat] registered an inhibitory constant (Ki) of 1000 nM.

For `CC[C@H](C)[C@H](NC(=O)[C@H](C)NC(=O)[C@H](Cc1c[nH]cn1)NC(=O)[C@@H]1CCCN1C(=O)CNC(=O)[C@H](CC(C)C)NC(=O)[C@H](CC(C)C)NC(=O)[C@H](Cc1ccc(O)cc1)NC(=O)CNC(=O)[C@H](C)NC(=O)[C@H](CO)NC(=O)[C@H](CC(N)=O)NC(=O)[C@H](CC(C)C)NC(=O)[C@@H](NC(=O)[C@@H](N)Cc1c[nH]c2ccccc12)[C@@H](C)O)C(=O)N[C@@H](CC(=O)O)C(=O)N[C@@H](CC(N)=O)C(=O)N[C@@H](Cc1c[nH]cn1)C(=O)N[C@@H](CCCNC(=N)N)C(=O)N[C@@H](CO)C(=O)N[C@@H](Cc1ccccc1)C(=O)N[C@@H](CO)C(=O)N[C@@H](CC(=O)O)C(=O)N[C@@H](CCCCN)C(=O)N[C@@H](Cc1c[nH]cn1)C(=O)NCC(=O)N[C@@H](CC(C)C)C(=O)N[C@H](C(N)=O)[C@@H](C)O` [Galanin Porcine 2-29], the Ki on Galanin receptor type 2 is 1.92 nM; on Galanin receptor type 3 it was 12.6 nM.

As for `CC[C@H](C)[C@H](NC(=O)[C@H](C)NC(=O)[C@H](Cc1cnc[nH]1)NC(=O)[C@@H]1CCCN1C(=O)CNC(=O)[C@H](CC(C)C)NC(=O)[C@H](CC(C)C)NC(=O)[C@H](Cc1ccc(O)cc1)NC(=O)CNC(=O)[C@H](C)NC(=O)[C@H](CO)NC(=O)[C@H](CC(N)=O)NC(=O)[C@H](CC(C)C)NC(=O)[C@@H](NC(=O)[C@H](Cc1c[nH]c2ccccc12)NC(=O)CN)[C@@H](C)O)C(=O)N[C@@H](CC(=O)O)C(=O)N[C@@H](CC(N)=O)C(=O)N[C@@H](Cc1cnc[nH]1)C(N)=O` [Galanin rat], the values for the inhibition constant Ki at Galanin receptor type 2 and at Galanin receptor type 3 were 4.7 nM and 6.25 nM, respectively.

As to “H-ELEPEDEARPGGFDRLQSQDKAIRTIMEFLAFLHLKEAGAL-NH2 [GMAP (1-41)]”, the Ki at Galanin receptor type 3 is 1000 nM.

In the case of H-GWTLNSAGYLLGPPPALALA-NH2 [M40], the Ki was determined as 2.88 nM at Galanin receptor type 2 and 54 nM on Galanin receptor type 3.

Compound “H-LLGPHAIDNHRSFSDKHGLT-NH2 [Galanin (10-29), rat]” showed a Ki on Galanin receptor type 3 of 1000 nM.

Take “H-LPGLPSAASSEDAGQS-NH2 [CAS_125455-59-6]”: the inhibitory constant (Ki) on Galanin receptor type 2 is 1000 nM; on Galanin receptor type 3 it was > 1000 nM.

For orientation: Ki means a measure of affinity in units of concentration, obtained from inhibition or displacement. A low value points to a stronger hold on the target.

The values are drawn from BindingDB's records for doi:10.1074/jbc.272.51.31949 (Schering-Plough Research Institute, 1997).
